Data: EP2459560B1, “RING-ANNULATED DIHYDROPYRROLO[2,L-A]ISOQUINOLINES” (Merck Sharp & Dohme B.V., priority 2009, dated 2011)

Biological target: T1, human FSH receptor (Homo sapiens, UniProt P23945)
T1 construct: expressed in transfected cells; host or cells: Chinese Hamster Ovary (CHO) cells, stably transfected; cotransfected with CRE/promoter-firefly luciferase reporter
T1 sequence (P23945 18-695): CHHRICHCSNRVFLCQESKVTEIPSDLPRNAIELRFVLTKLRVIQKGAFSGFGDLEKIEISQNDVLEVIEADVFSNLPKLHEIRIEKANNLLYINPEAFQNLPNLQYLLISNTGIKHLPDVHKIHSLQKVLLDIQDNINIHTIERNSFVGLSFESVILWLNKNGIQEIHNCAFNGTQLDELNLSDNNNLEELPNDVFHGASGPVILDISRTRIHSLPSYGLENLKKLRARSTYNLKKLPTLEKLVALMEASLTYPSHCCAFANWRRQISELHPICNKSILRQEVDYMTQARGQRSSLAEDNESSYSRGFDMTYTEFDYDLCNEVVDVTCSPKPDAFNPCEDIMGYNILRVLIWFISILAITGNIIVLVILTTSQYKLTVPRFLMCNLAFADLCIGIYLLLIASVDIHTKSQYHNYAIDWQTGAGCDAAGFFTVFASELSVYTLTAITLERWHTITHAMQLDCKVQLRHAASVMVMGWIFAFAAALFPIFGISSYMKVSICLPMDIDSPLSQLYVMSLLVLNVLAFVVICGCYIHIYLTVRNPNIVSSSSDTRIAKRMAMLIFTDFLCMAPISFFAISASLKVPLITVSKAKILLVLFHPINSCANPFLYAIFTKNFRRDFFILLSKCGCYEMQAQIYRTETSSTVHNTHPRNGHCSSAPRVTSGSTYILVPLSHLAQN
Assay: Agonistic activity at the human FSH receptor expressed in CHO cells (CRE-luciferase reporter)
Assay type: cell-based
Settings: CHO cells stably transfected with the human FSH receptor and a CRE/luciferase reporter, 4 hours of incubation, pEC50 is -logEC50; for EC50: read-out: hFSHRago (CHO luc) pEC50 (converted)
Protocol: For the determination a software program such as MathIQ (version 2.0, ID Business Solutions Limited) can be used.
Agonistic activity of compounds at the human FSH receptor expressed in CHO cells
Agonistic activity of the compounds at the human FSH receptor was determined in Chinese Hamster Ovary (CHO) cells stably transfected with the human FSH receptor and cotransfected with a cAMP responsive element (CRE)/promotor directing the expression of a firefly luciferase reporter gene. […] The final concentration of DMSO was 1%. After 4 hours of incubation, plates were allowed to adjust to room temperature for 1 hour. Then, Luclite (PerkinElmer) solution was added to the wells and cells were allowed to lyse for at least 1 hour at room temperature. Subsequently, luciferase activity was measured in a luminescence counter. The signal is expressed as counts per second (cps).

Compound | hFSHRago (CHO luc) pEC50 | EC50 [nM]
9-tert-butyl-3-methoxy-2-pyridin-3-yl-14-(1,3-thiazol-5-yl)-5,6,10,11,12,13-hexahydroazocino[4',3':4,5]pyrrolo[2,1-a]isoquinolin-8(9H)-one [11j] | 8.51 | –
COc1cc2c(cc1-c1cnn(C)c1)-c1c(-c3cccs3)c3c(n1CC2)C(=O)N(C(C)(C)C)CCC3 [4h] | – | 64.6
COc1cc2c(cc1-c1cnccn1)-c1c(-c3cccs3)c3c(n1CC2)C(=O)N(C(C)(C)C)CCC3 [4i, 9-tert-butyl-2-(pyrazin-2-yl)-3-methoxy-13-(2-thienyl)-5,6,9,10,11,12-hexahydro-8H-azepino[4',3':4,5]pyrrolo[2,1-a]isoquinolin-8-one] | – | 13.8
COc1cc2c(cc1-c1cccnc1)-c1c(-c3cccs3)c3c(n1CC2)C(=O)N(C(C)(C)C)CCSC3 [9k, 9-tert-butyl-3-methoxy-2-pyridin-3-yl-14-(2-thienyl)-5,6,10,11,13,13a-hexahydro-7aH-[1,4]thiazocino[7',6':4,5]pyrrolo[2,1-a]isoquinolin-8(9H)-one] | – | 0.316
COc1cc2c(cc1[C@@H](O)[C@H](O)CO)-c1c(-c3cccs3)c3c(n1CC2)C(=O)N(C(C)(C)C)CCCC3 [21i] | – | 5.25
